Measurements taken from US20090246240A1, “DRY BACTERICIDAL NONWOVEN WIPE” (priority 2008, published 2009).
Read-outs that look alike come from different tables or passages of the source.

Legend:
Staphylococcus aureus = experiment: AATCC Test Method 100: Assessment of Antibacterial Finishes on Textile Materials (Staphylococcus aureus); format: cell-based, ATCC 6538
From the text: (§1) A dry bactericidal wipe comprising was formed using 100% 1.5 denier Visocel® rayon fibers 38-mm in length, available from SNIACE of Torrelavega, Cantabria, Spain. A binder composition containing 5% of an acrylic binder, ST 954, available from Rohm and Hass Chemicals LLC of Charlotte, N.C., U.S.A. and 95% water was applied first using foam application at the first application at a level of about 10.6 grams per square yard, heating using steam or oil heated cans for about 45 seconds at a temperature of about 275° Fahrenheit. A second application of the binder/bactericidal composition containing 5% of the ST 954 acrylic binder, 1% tetradecylbenzyldimethyl ammonium chloride, and 94% water was applied by padding at a level of about 1.2 grams per square yard. The web is then heated in the same manner as above. The wipe has thickness of about 11 mils measured according to ASTM D 1777 and a basis weight of 37.8 g/yd^2, measured according to ASTM D 3776. A sample was prepared for bactericidal testing according to AATCC Test Method 100: Assessment of Antibacterial Finishes on Textile Materials.
(§2) Another aspect of the present invention is the discovery of a new use for a certain bactericidal agent, namely the tetradecylbenzyldimethyl ammonium chloride. As will be appreciated by those skilled in the art, there are various methods to assess the effectiveness of a bactericidal agent. The discovery here is that this particular bactericidal agent provides a greater than 90%, preferably greater than 95%, and more preferably greater than 99% reduction in bacterium, including methicillin resistant Staphylococcus aureus (MRSA or Mursa), Staphylococcus aureus, Klebsiella pneumoniae, or combinations thereof. One method for determining the reduction of such organisms is American Association of Textile Chemists and Colorists (AATCC) Test Method 100, using American Type Culture Collection (ATCC) reference organisms ATCC 33591, methicillin resistant Staphylococcus aureus (MRSA), ATCC 6538, Staphylococcus aureus, and ATCC 4352, Klebsiela pneumoniae. […]

Klebsiella pneumoniae = experiment: AATCC Test Method 100: Assessment of Antibacterial Finishes on Textile Materials (Klebsiella pneumoniae); format: cell-based, ATCC 4352
From the text: as §1, §2

[1] = tested on: methicillin resistant Staphylococcus aureus (MRSA); experiment: AATCC Test Method 100: Assessment of Antibacterial Finishes on Textile Materials (MRSA); format: cell-based
From the text: as §1, §2

[2] = listed as tetradecyl benzyl dimethyl ammonium chloride
[3] = listed as tetradecyldimethylbenzyl ammonium chloride

CCCCCCCCCCCCCC[N+](C)(C)Cc1ccccc1.[Cl-] [tetradecylbenzyldimethyl ammonium chloride]
reduction in Staphylococcus aureus bacterium (Staphylococcus aureus): greater than 90% | reduction in Staphylococcus aureus bacterium (Staphylococcus aureus; [2]): greater than 90% | reduction in Staphylococcus aureus bacterium (Staphylococcus aureus; [3]): more than 99% | reduction in the Klebsiella pneumoniae bacterium (Klebsiella pneumoniae): greater than 90% | reduction in the Klebsiella pneumoniae bacterium (Klebsiella pneumoniae; [2]): greater than 90% | reduction in the Klebsiella pneumoniae bacterium (Klebsiella pneumoniae; [3]): more than 99% | reduction in methicillin resistant Staphylococcus aureus (MRSA) [1]: greater than 90% | reduction in methicillin resistant Staphylococcus aureus (MRSA) [1, 2]: greater than 90% | reduction in methicillin resistant Staphylococcus aureus (MRSA) [1, 3]: more than 99%
